Data set [1] has as its system Bacillus subtilis (ATCC 6633). The data set is described as follows: Agar disk bioassay (zone of inhibition) of antibiotics released from the crosslinked bioelastomer constructs. It is filed as cell-based. To be noted: for active compound concentration corresponding to zone of inhibition: day 1 supernatant; for active compound concentration corresponding to zone of inhibition / active drug concentration corresponding to zone of inhibition: vs serial dilutions. Here is the method: To determine if the eluted antibiotics remained active, bioassays were performed in triplicate, for a subset of samples, using Bacillus subtilis (ATCC 6633) for both vancomycin and cefazolin. Vancomycin supernatants from days 1, 7, 14, 21, and 28, as well as a sample of the final construct (following resolubilization) were tested against vancomycin serial dilutions of 5 mg/ml, 1 mg/ml, 0.5 mg/ml, 0.1 mg/ml, and 0.05 mg/ml. […] Bacterial suspensions were prepared in tryptic soy broth following the recommendations set forth by the manufacturer for Bacillus subtilis (Lyfo Disk, MicroBiologics, St. Cloud, Minn.). After 30 minutes of incubation at 37° C. the suspensions were swabbed onto petri dishes containing Mueller-Hinton agar. Twenty microliters of each supernatant were pipetted onto 6 mm filter paper disks applied to the surface of the agar. The plates were incubated for 18 hours at 37° C. After incubation, zones of inhibition were measured twice in two randomly chosen directions. Supernatants from ELP control samples were tested in this same manner.

For data set [2] the following is noted: reported value, organism not stated; cited from earlier work.
The nature of data set [3]: Antibiotic release from the crosslinked bioelastomer constructs into PBS at 37° C, UV/Vis of supernatant. To be noted: ELP 150 mg/ml. It is filed as physicochemical.

Where a name gives a salt, the structure may show the parent alone. Bounds are passed on as bounds.

On to `Cc1nnc(SCC2=C(C(=O)[O-])N3C(=O)[C@@H](NC(=O)Cn4cnnn4)[C@H]3SC2)s1.[Na+]` [cefazolin, cefazolin sodium salt], for which the “active compound concentration corresponding to zone of inhibition” value in data set [1] (cefazolin released from crosslinked construct) is roughly 2 mg/mL. For the same compound, the “active drug concentration corresponding to zone of inhibition” value in data set [1] (cefazolin released from crosslinked construct, day 3 supernatant) is recorded as “less than 0.5 mg/ml”. Further, in data set [1] (supernatants of days 1-4 and final homogenized construct, all samples tested), the “zone of bacterial growth inhibition, biological activity of released cefazolin” value is reported as “biologically active”. The minimal inhibitory concentration in data set [2] is 0.25 to 1 µg/mL. Besides, the “time in which the majority of cefazolin release took place” value in data set [3] (cefazolin-loaded ELP constructs) is “initial two or three days”.
Take `CN[C@H](CC(C)C)C(=O)N[C@H]1C(=O)N[C@@H](CC(N)=O)C(=O)N[C@H]2C(=O)N[C@H]3C(=O)N[C@H](C(=O)N[C@H](C(=O)O)c4cc(O)cc(O)c4-c4cc3ccc4O)[C@H](O)c3ccc(c(Cl)c3)Oc3cc2cc(c3O[C@@H]2O[C@H](CO)[C@@H](O)[C@H](O)[C@H]2O[C@H]2C[C@](C)(N)[C@H](O)[C@H](C)O2)Oc2ccc(cc2Cl)[C@H]1O` [vancomycin, vancomycin hydrochloride]: the “zone of bacterial growth inhibition, biological activity of released vancomycin” value in data set [1] (all supernatants tested (days 1, 7, 14, 21, 28) and homogenized final sample) is on record as “retained biological activity”. The “active compound concentration corresponding to zone of inhibition” value in data set [1] (vancomycin released from crosslinked construct) was roughly 1 mg/mL. The “active drug concentration corresponding to zone of inhibition” value in data set [1] (vancomycin released from crosslinked construct, day 7 supernatant) is listed as “less than 0.1 mg/ml”. The minimal inhibitory concentration in data set [2] was 1.5 to 3 µg/mL. Further, in data set [3] (cefazolin-loaded ELP constructs, PBS 37° C, supernatant replaced days 1-10), the “time period over which the ELP constructs release antibiotic” value is no less than 10 days. In data set [3] (vancomycin-loaded crosslinked ELP constructs, PBS 37° C, supernatant replaced), the “time period over which the crosslinked ELP constructs release vancomycin” value was no less than 28 days.
